Reference: the NIST ThermoML archive (doi:10.1021/je034223r)
± gives the expanded uncertainty stated by the source.

Columns and labels:
[1] = heat capacity at constant pressure per volume; xn = mol fraction of the nth substance listed; settings: 298.15 K, 101.3 kPa, Liquid, Flow calorimetry
[2] = xn = mol fraction of the nth substance listed; settings: 298.15 K, 101.3 kPa, Liquid, vibrating tube
[3] = refractive index (Na D-line) (dimensionless); xn = mol fraction of the nth substance listed; settings: 298.15 K, 101.3 kPa, Liquid, refractometer
[4] = excess molar enthalpy (molar enthalpy of mixing); xn = mol fraction of the nth substance listed; settings: 298.15 K, 101.3 kPa, Liquid, Flow calorimetry

CCCC(C)=O [pentan-2-one] + C1COCO1
Settings	excess molar enthalpy [kcal/mol]	heat capacity [J/K/m3]	mass density [kg/m3]	refractive index
[1], x2 = 0.0638	–	1709600 ± 2600	–	–
[1], x2 = 0.1404	–	1711100 ± 2700	–	–
[1], x2 = 0.2192	–	1712900 ± 2700	–	–
[1], x2 = 0.2981	–	1714700 ± 2700	–	–
[1], x2 = 0.3819	–	1716700 ± 2700	–	–
[1], x2 = 0.4598	–	1719100 ± 2700	–	–
[1], x2 = 0.5386	–	1721800 ± 2700	–	–
[1], x2 = 0.6171	–	1724700 ± 2700	–	–
[1], x2 = 0.6915	–	1727300 ± 2700	–	–
[1], x2 = 0.7737	–	1730500 ± 2700	–	–
[1], x2 = 0.8546	–	1733700 ± 2700	–	–
[1], x2 = 0.9324	–	1736700 ± 2700	–	–
[2], x2 = 0.0882	–	–	816.74 ± 0.42	–
[2], x2 = 0.1647	–	–	830.91 ± 0.43	–
[2], x2 = 0.2307	–	–	843.79 ± 0.43	–
[2], x2 = 0.3499	–	–	868.72 ± 0.44	–
[2], x2 = 0.3798	–	–	875.35 ± 0.45	–
[2], x2 = 0.4314	–	–	887.14 ± 0.45	–
[2], x2 = 0.4631	–	–	894.63 ± 0.46	–
[2], x2 = 0.5169	–	–	907.82 ± 0.46	–
[2], x2 = 0.5183	–	–	908.18 ± 0.46	–
[2], x2 = 0.5529	–	–	916.98 ± 0.47	–
[2], x2 = 0.5897	–	–	926.62 ± 0.47	–
[2], x2 = 0.6338	–	–	938.59 ± 0.48	–
[2], x2 = 0.6667	–	–	947.78 ± 0.48	–
[2], x2 = 0.7131	–	–	961.29 ± 0.49	–
[2], x2 = 0.7174	–	–	962.55 ± 0.49	–
[2], x2 = 0.7909	–	–	985.17 ± 0.5	–
[2], x2 = 0.8704	–	–	1011.41 ± 0.52	–
[2], x2 = 0.9486	–	–	1039.18 ± 0.53	–
[3], x2 = 0.0759	–	–	–	1.3885 ± 0.00021
[3], x2 = 0.1654	–	–	–	1.38924 ± 0.00021
[3], x2 = 0.2333	–	–	–	1.38982 ± 0.00021
[3], x2 = 0.3134	–	–	–	1.39054 ± 0.00021
[3], x2 = 0.3532	–	–	–	1.39091 ± 0.00021
[3], x2 = 0.3984	–	–	–	1.39134 ± 0.00021
[3], x2 = 0.431	–	–	–	1.39166 ± 0.00021
[3], x2 = 0.4741	–	–	–	1.39208 ± 0.00021
[3], x2 = 0.5178	–	–	–	1.39252 ± 0.00021
[3], x2 = 0.5578	–	–	–	1.39293 ± 0.00021
[3], x2 = 0.5924	–	–	–	1.39329 ± 0.00021
[3], x2 = 0.6321	–	–	–	1.39372 ± 0.00021
[3], x2 = 0.6761	–	–	–	1.39419 ± 0.00021
[3], x2 = 0.7128	–	–	–	1.3946 ± 0.00021
[3], x2 = 0.7928	–	–	–	1.3955 ± 0.00021
[3], x2 = 0.9448	–	–	–	1.3973 ± 0.00021
[4], x2 = 0.1	0.0128 ± 0.000311	–	–	–
[4], x2 = 0.15	0.0196 ± 0.000359	–	–	–
[4], x2 = 0.2	0.0266 ± 0.000406	–	–	–
[4], x2 = 0.25	0.0329 ± 0.000454	–	–	–
[4], x2 = 0.3	0.0375 ± 0.000478	–	–	–
[4], x2 = 0.35	0.0424 ± 0.000526	–	–	–
[4], x2 = 0.4	0.0462 ± 0.00055	–	–	–
[4], x2 = 0.45	0.0492 ± 0.000574	–	–	–
[4], x2 = 0.5	0.0504 ± 0.000574	–	–	–
[4], x2 = 0.55	0.0506 ± 0.000574	–	–	–
[4], x2 = 0.6	0.0498 ± 0.000574	–	–	–
[4], x2 = 0.65	0.0479 ± 0.000574	–	–	–
[4], x2 = 0.7	0.0449 ± 0.00055	–	–	–
[4], x2 = 0.75	0.0407 ± 0.000502	–	–	–
[4], x2 = 0.8	0.0353 ± 0.000478	–	–	–
[4], x2 = 0.85	0.0286 ± 0.00043	–	–	–
[4], x2 = 0.9	0.0205 ± 0.000382	–	–	–

O=C1CCCC1 [cyclopentanone] + C1COCO1
Settings	excess molar enthalpy [kcal/mol]	heat capacity [J/K/m3]	mass density [kg/m3]	refractive index
[1], x2 = 0.0645	–	1713700 ± 2700	–	–
[1], x2 = 0.1429	–	1716000 ± 2700	–	–
[1], x2 = 0.3008	–	1720700 ± 2700	–	–
[1], x2 = 0.3817	–	1723100 ± 2700	–	–
[1], x2 = 0.4603	–	1725400 ± 2700	–	–
[1], x2 = 0.5381	–	1727400 ± 2700	–	–
[1], x2 = 0.6191	–	1729600 ± 2700	–	–
[1], x2 = 0.6973	–	1731600 ± 2700	–	–
[1], x2 = 0.8468	–	1734900 ± 2700	–	–
[1], x2 = 0.928	–	1736500 ± 2700	–	–
[2], x2 = 0.0808	–	–	951.41 ± 0.49	–
[2], x2 = 0.1586	–	–	958.77 ± 0.49	–
[2], x2 = 0.2251	–	–	965.28 ± 0.49	–
[2], x2 = 0.3113	–	–	974.02 ± 0.5	–
[2], x2 = 0.3507	–	–	978.14 ± 0.5	–
[2], x2 = 0.4024	–	–	983.65 ± 0.5	–
[2], x2 = 0.4295	–	–	986.6 ± 0.5	–
[2], x2 = 0.4749	–	–	991.62 ± 0.51	–
[2], x2 = 0.509	–	–	995.47 ± 0.51	–
[2], x2 = 0.5451	–	–	999.61 ± 0.51	–
[2], x2 = 0.5465	–	–	999.76 ± 0.51	–
[2], x2 = 0.5891	–	–	1004.75 ± 0.51	–
[2], x2 = 0.6248	–	–	1009 ± 0.51	–
[2], x2 = 0.6813	–	–	1015.89 ± 0.52	–
[2], x2 = 0.7075	–	–	1019.14 ± 0.52	–
[2], x2 = 0.7891	–	–	1029.57 ± 0.52	–
[2], x2 = 0.8629	–	–	1039.38 ± 0.53	–
[3], x2 = 0.0815	–	–	–	1.43248 ± 0.00021
[3], x2 = 0.1569	–	–	–	1.43014 ± 0.00021
[3], x2 = 0.2322	–	–	–	1.42774 ± 0.00021
[3], x2 = 0.3155	–	–	–	1.425 ± 0.00021
[3], x2 = 0.3526	–	–	–	1.42375 ± 0.00021
[3], x2 = 0.3965	–	–	–	1.42224 ± 0.00021
[3], x2 = 0.4345	–	–	–	1.42091 ± 0.00021
[3], x2 = 0.4742	–	–	–	1.41949 ± 0.00021
[3], x2 = 0.5109	–	–	–	1.41816 ± 0.00021
[3], x2 = 0.5558	–	–	–	1.4165 ± 0.00021
[3], x2 = 0.5858	–	–	–	1.41537 ± 0.00021
[3], x2 = 0.6334	–	–	–	1.41355 ± 0.00021
[3], x2 = 0.6716	–	–	–	1.41206 ± 0.00021
[3], x2 = 0.7127	–	–	–	1.41042 ± 0.00021
[3], x2 = 0.7862	–	–	–	1.4074 ± 0.00021
[3], x2 = 0.8695	–	–	–	1.40385 ± 0.00021
[3], x2 = 0.9509	–	–	–	1.40023 ± 0.00021
[4], x2 = 0.1	-0.000954 ± 0.000194	–	–	–
[4], x2 = 0.2	-0.00204 ± 0.000203	–	–	–
[4], x2 = 0.3	-0.0033 ± 0.000213	–	–	–
[4], x2 = 0.4	-0.00437 ± 0.00022	–	–	–
[4], x2 = 0.5	-0.00521 ± 0.000227	–	–	–
[4], x2 = 0.6	-0.00564 ± 0.000229	–	–	–
[4], x2 = 0.7	-0.00548 ± 0.000229	–	–	–
[4], x2 = 0.8	-0.00463 ± 0.000222	–	–	–
[4], x2 = 0.9	-0.00288 ± 0.00021	–	–	–
